Common to all, as to format: ADME, organism-based
The nature of data set [1]: (§1) Pharmacokinetic parameters for Isosorbide mononitrate after multiple oral dose administrations of 60 and 120 mg Isosorbide mononitrate tablets to subjects. As to conditions: human, in vivo; dose 60 mg, dosed compound id 10, dosed compound name ISOSORBIDE MONONITRATE, regimen Multiple dose, route oral, tissue Plasma. Also noted: dose 120 mg, dose 60 mg, route oral.
In data set [2] the test system is Homo sapiens. Described as §1. Also noted: dose 120 mg, dose 60 mg, route oral. As to conditions: in vivo, po, dosed compound id 10, dosed compound name ISOSORBIDE MONONITRATE, regimen Multiple dose, tissue Plasma.
A short description of data set [3]: (§2) Pharmacokinetic parameters for Isosorbide mononitrate after single oral dose administration of 60 mg Isosorbide mononitrate solution or table to subjects. The following applies: human, in vivo, dosed compound id 10, dosed compound name ISOSORBIDE MONONITRATE, regimen Single dose, tissue Plasma. Also noted: dose 60 mg, route oral.
Data set [4] concerns Homo sapiens. Described as §2. Also noted: dose 60 mg, route oral. The following applies: in vivo, po, dosed compound id 10, dosed compound name ISOSORBIDE MONONITRATE, regimen Single dose, tissue Plasma.

Where “and” joins values, the source holds several entries; their conditions need not be identical. Equal entries are not always repeated.

As for `O=[N+]([O-])O[C@@H]1CO[C@H]2[C@@H]1OC[C@@H]2O` [ISOSORBIDE MONONITRATE], the CL/F lay in the range of 132 to 151 mL/min in data set [1]; 119 to 140 mL/min with Homo sapiens [2] (dose 120 mg); 151 to 187 mL/min in data set [3] (dose 60 mg, route oral); 120 to 122 mL/min in the data set on Homo sapiens [4] (dose 60 mg). Also, the Tmax in data set [1] was in the range of 2.9 to 4.2 h; in the data set on Homo sapiens [2] (dose 120 mg), 3.1 to 3.2 h. The half-life in data set [1] lay within 6.2 to 6.3 h; in data set [3] (dose 60 mg, route oral), 6.3 to 6.6 h. Besides, the AUC in the data set on Homo sapiens [2] was 6620 to 7560 ng·h/mL and 14200 to 16800 ng·h/mL; in data set [3] (po, 60 mg), 5990 to 7450 ng·h/mL; in the data set with Homo sapiens [4], 8190 to 8310 ng·h/mL. In addition, the Cmax with Homo sapiens [2] is 557 to 572 ng/mL and 1150 to 1180 ng/mL; in the data set on Homo sapiens [4] it was 424 to 541 ng/mL and 1240 to 1530 ng/mL. The same compound registered a t1/2 in the data set with Homo sapiens [4] (dose 60 mg) of 4.8 to 5.1 h.

The values above are taken from ChEMBL document CHEMBL3832066, “DailyMed|setid=891194e8-7083-4438-8d27-c72f2372e40f | ISOSORBIDE MONONITRATE - isosorbide mononitrate tablet, extended release|Mckesson Contract Packaging”.
